US20050255504A1, “Method of detecting an increased susceptibility to breast cancer” (priority 2004, published 2005)
Substitutions are numbered along the chain they refer to.

T1: COMT (Homo sapiens, UniProt P21964)
T1 construct: made in house; host or cells: Escherichia coli DH5alphaF'Iq
T1 sequence (P21964 1-221 isoform P21964-2): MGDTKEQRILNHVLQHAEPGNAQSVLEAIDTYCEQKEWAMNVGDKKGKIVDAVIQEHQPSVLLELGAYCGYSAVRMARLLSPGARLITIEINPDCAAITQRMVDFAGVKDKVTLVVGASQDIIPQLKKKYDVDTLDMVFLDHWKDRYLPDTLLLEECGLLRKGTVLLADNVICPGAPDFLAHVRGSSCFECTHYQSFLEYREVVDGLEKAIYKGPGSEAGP

B1: Variant 4: recombinant CYP1B1 variant: 48Arg, 119Ala, 432Val, 453Ser (protein, UniProt Q16678 1-543, looked up, variant N453S)
Cytochrome P450 1B1: MGTSLSPNDPWPLNPLSIQQTTLLLLLSVLATVHVGQRLLRQRRRQLRSAPPGPFAWPLIGNAAAVGQAAHLSFARLARRYGDVFQIRLGSCPIVVLNGERAIHQALVQQGSAFADRPAFASFRVVSGGRSMAFGHYSEHWKVQRRAAHSMMRNFFTRQPRSRQVLEGHVLSEARELVALLVRGSADGAFLDPRPLTVVAVANVMSAVCFGCRYSHDDPEFRELLSHNEEFGRTVGAGSLVDVMPWLQYFPNPVRTVFREFEQLNRNFSNFILDKFLRHCESLRPGAAPRDMMDAFILSAEKKAAGDSHGGGARLDLENVPATITDIFGASQDTLSTALQWLLLLFTRYPDVQTRVQAELDQVVGRDRLPCMGDQPNLPYVLAFLYEAMRFSSFVPVTIPHATTANTSVLGYHIPKDTVVFVNQWSVNHDPLKWPNPENFDPARFLDKDGLISKDLTSRVMIFSVGKRRCIGEELSKMQLFLFISILAHQCDFRANPNEPAKMNFSYGLTIKPKSFKVNVTLRESMELLDSAVQNLQAKETCQ
B2: Variant 1: recombinant CYP1B1 variant: 48Gly, 119Ala, 432Val, 453Asn (protein, UniProt Q16678 1-543, looked up, variant R48G)
Cytochrome P450 1B1: B1 Cytochrome P450 1B1 with R48G, S453N
B3: Variant 2: recombinant CYP1B1 variant: 48Arg, 119Ser, 432Val, 453Asn (protein, UniProt Q16678 1-543, looked up, variant A119S)
Cytochrome P450 1B1: B1 Cytochrome P450 1B1 with A119S, S453N
B4: Wild type: purified recombinant His-tagged wild type CYP1B1: 48Arg, 119Ala, 432Val, 453Asn (protein)
chain: HHHHHHLLSVLATVHVGQRLLRQRRRQLRSAPPGPFAWPLIGNAAAVGQAAHLSFARLARRYGDVFQIRLGSCPIVVLNGERAIHQALVQQGSAFADRPAFASFRVVSGGRSMAFGHYSEHWKVQRRAAHSMMRNFFTRQPRSRQVLEGHVLSEARELVALLVRGSADGAFLDPRPLTVVAVANVMSAVCFGCRYSHDDPEFRELLSHNEEFGRTVGAGSLVDVMPWLQYFPNPVRTVFREFEQLNRNFSNFILDKFLRHCESLRPGAAPRDMMDAFILSAEKKAAGDSHGGGARLDLENVPATITDIFGASQDTLSTALQWLLLLFTRYPDVQTRVQAELDQVVGRDRLPCMGDQPNLPYVLAFLYEAMRFSSFVPVTIPHATTANTSVLGYHIPKDTVVFVNQWSVNHDPLKWPNPENFDPARFLDKDGLINKDLTSRVMIFSVGKRRCIGEELSKMQLFLFISILAHQCDFRANPNEPAKMNFSYGLTIKPKSFKVNVTLRESMELLDSAVQNLQAKETCQ

Tests used:
renal DNA = details: hamster, in vivo; cited from earlier work
COMT = target: T1, COMT; test: Assay of COMT activity: methylation of catechol estrogens by purified recombinant His-COMT; type: biochemical; details: for pattern of the rates of methylation versus substrate concentration: substrate of COMT, FIG. 9; for formation as product of COMT methylation of 4-OHE2 / 4-OHE1: GC/MS detection of product
Procedure: Assay of COMT Activity. Purified recombinant His-COMT (300 pmol) was reconstituted in 0.5 ml of 100 mM KPO4, pH 7.4, containing 5 mM MgCl2, 10 mM (β-mercaptoethanol, and 200 μM SAM. Reactions were initiated by adding varying concentrations of each individual catechol estrogen (2, 3, 6, 9, 12, 15, 20, 40, 60, 80, and 100 μM). Blanks contained all compounds except SAM. Reactions proceeded for 10 min at 37° C. with gentle shaking and then were terminated by addition of 2 ml CH2Cl2. To determine COMT activity in breast cancer cells, ZR-75 and MCF-7 cells were harvested at confluency and homogenized in 100 mM KP04, pH 7.4, 5 mM MgCl2, 10 mM β-mercaptoethanol. Following ultracentrifugation of the cell homogenate (110,000 g, 30 min, 4° C.), the supernatant cytosol was divided into aliquots for ICELISA, protein determination (BCA assay; Pierce, Rockford, Ill.), and COMT assay. The latter was carried out in the presence of 200 μM SAM and 100 μM catechol estrogen for 20 min at 37° C. and then terminated by addition of CH2Cl2. The concentration of endogenous catechol and methoxy estrogens was below the limit of detection by gas chromatography/mass spectrometry.
Extraction and Gas Chromatography/Mass Spectrometry Analysis of Catechol Estrogens. A deuterated internal standard (100 μl of 8 mg/liter E2-d4 in methanol) was added and all estrogens extracted into the CH2Cl2 by vortex mixing for 30 s. 1.5 ml of the CH2Cl2 fraction was evaporated to dryness under air and volatile TMS derivatives prepared by heating the residue with 100 μl of 50% NO-bis(trimethylsilyl)trifluoroacetamide/1% trimethyl chlorosilane in acetonitrile at 56° C. for 30 min. The TMS derivatives of the estrogen metabolites were separated by gas chromatography (H—P 5890, Hewlett-Packard, Wilmington, Del.) on a 5% phenyl methyl silicone stationary phase fused silica capillary column (30 m×0.2 mm×0.5 μm film, HP5; Hewlett-Packard). Helium carrier gas was used at a flow of 1 ml/min. The injector was operated at 250° C., with 2 μl injected in the splitless mode, with a purge (60 ml/min helium) time of 0.6 min. The oven temperature was held at 180° C. for 0.5 min, then raised at 6° C./min to 250° C. where it was held for 17 min, then raised to 300° C. at 8° C./min to give a total run time of 35.42 min. This program permitted adequate separation of a wide range of estrogen metabolites. Retention times (in min) for the TMS derivatives were E1 20.13, E2 and E2-d4 21.89, 4-MeOE1 23.52, 2-MeO-3-MeOE1 (underivatized) 23.75, 2-OH-3-MeOE1 24.87, 2-MeOE1 25.2, 4-MeOE2 25.78, 2-OHE1 and 2-MeO-3-MeOE2 26.19, 2-OH-3-MeOE2 26.9, 2-MeOE2 27.18, 4-OHE1 27.27, 6a-OHE2 27.29, 2-OHE2 27.44, 4-OHE2 28.06, E3 28.38. The E1 mass spectrometer (H—P 5970) was operated in the selected ion monitoring mode from 18 to 30 min. Ions monitored were TMS-E1 342, 257, 343; TMS2-E2-d4 420, 421, 287; TMS2-E2 416, 417, 285; TMS-4-MeOE1, TMS-2-OH-3-MeOE1, TMS-2-MeOE1 and TMS-3-MeO-4-OHE1 372, 373, 342; 2-MeO-3-MeOE1 314, 315, 229; TMS2-4-MeOE2, TMS2-2-OH-3-MeOE2, TMS2-2-MeOE2 and TMS2-3-MeO-4-OHE2 446, 447, 315; TMS2-2-OHE1 430, 431, 432; TMS-2-MeO-3-MeOE2 388, 389, 257; TMS2-4-OHE1 430, 431, 345; TMS2-6α-OHE2 414, 283, 309; TMS3-2-OHE2 and TMS3-4-OHE2 504, 505, 373; TMS3-E3 504, 505, 311 (FIG. 7). The instrument was calibrated by simultaneous preparation of an 11-point calibration over the range 0-22 nmol/tube of each compound. Sensitivity was determined to be between 0.02 and 0.04 nmol/tube (400-800 finol on column) for the various compounds. […] Absolute extraction efficiency for E2,2-OH-E2 and 4-OH-E2 at 3.5 nmol/tube was 119, 96, and 107% assessed by comparison to injections of spiked solvent samples onto the gas chromatograph. Internal standard added prior to extraction compensated for deviation from 100% recovery for all investigated compounds.
Statistical Analysis. […]

CYP1B1 = test: Assay of CYP1B1 E2 hydroxylation activity (purified recombinant enzyme, GC/MS of products); type: biochemical, human; details: E2 16a-hydroxylation
Procedure: Assay of CYP1B1 E2 Hydroxylation Activity. […] An NADPH-generating system consisting of 5 mM glucose 6-phosphate and 0.5 U of glucose-6-phosphate dehydrogenase/ml was added and reactions initiated by adding NADP+ to a final concentration of 0.5 mM. Reactions proceeded for 10 min at 37° C. with gentle shaking and then were terminated by addition of 2 ml CH2Cl2. Extraction and Gas Chromatography/Mass Spectrometry Analysis of E2 and Metabolites. […] Hewlett-Packard). Helium carrier gas was used at a flow of 1 ml/min. The injector was operated at 250° C., with […] injected in the splitless mode, with a purge (60 ml/min helium) time of 0.6 min. The oven temperature was held at 180° C. for 0.5 min, then raised at 6° C./min to 250° C. where it was held for 17 min, then raised to 300° C. at 8° C./min to give a total run time of 35.42 min. […] The E1 mass spectrometer (H-P 5970) was operated in the selected ion monitoring mode from 18 to 34 min. […] TMS2-E2 416, 285, 326; […]2 504, 373, 325; TMS3-16_-OH-E2 345, 311, 504. […] Internal standard added prior to extraction compensated for deviation from 100% recovery. Statistical Analysis. Kinetic parameters (Km and kcat) were determined by nonlinear regression analysis using the computer program GraphPad PRISM (San Diego, Calif.).

| Molecule | levels of the oxidized base 8-hydroxy-deoxyguanosine in renal DNA (renal DNA) | pattern of the rates of methylation versus substrate concentration (COMT) | 16a-OH-Estradiol kcat (CYP1B1) | further results |
| --- | --- | --- | --- | --- |
| C[C@]12CC[C@@H]3c4ccc(O)c(O)c4CC[C@H]3[C@@H]1CCC2=O [Variant 4-OHE1] | significantly increased | sigmoid curve pattern | – | – |
| COc1ccc2c(c1O)CC[C@@H]1[C@@H]2CC[C@]2(C)C(=O)CC[C@@H]12 [Variant 3-MeO-4-OHE1] | – | – | – | formation as product of COMT methylation of 4-OHE2 / 4-OHE1 (COMT): not observed |
| C[C@]12CC[C@@H]3c4cc(O)c(O)cc4CC[C@H]3[C@@H]1CCC2=O [Variant 2-OHE1] | – | typical hyperbolic patterns | – | – |
| COc1ccc2c(c1O)CC[C@@H]1[C@@H]2CC[C@]2(C)[C@@H](O)CC[C@@H]12 [Variant 3-MeO-4-OHE2] | – | – | – | formation as product of COMT methylation of 4-OHE2 / 4-OHE1 (COMT): not observed |
| C[C@]12CC[C@@H]3c4ccc(O)c(O)c4CC[C@H]3[C@@H]1CC[C@@H]2O [Variant 4-OHE2] | significantly increased | sigmoid curve pattern | – | – |
| C[C@]12CC[C@@H]3c4cc(O)c(O)cc4CC[C@H]3[C@@H]1CC[C@@H]2O [Variant 2-OHE2] | did not cause oxidative DNA damage | typical hyperbolic patterns | – | – |
| B1 | – | – | 0.0065 ± 0.00033 s⁻¹ | – |
| B2 | – | – | 0.00933 ± 0.00067 s⁻¹ | – |
| B3 | – | – | 0.00567 ± 0.00033 s⁻¹ | – |
| B4 | – | – | 0.005 ± 0.00033 s⁻¹ | 16a-OH-Estradiol kcat (CYP1B1; listed as Wild type CYP1B1): 0.005 ± 0.00033 s⁻¹; 16a-OH-Estradiol kcat (CYP1B1; listed as wild type CYP1B1): 0.005 ± 0.00033 s⁻¹ |
